This is an account of results in paper PMC9865163, “Structural Basis of the Inhibition of L-Methionine γ-Lyase from Fusobacterium nucleatum” (International Journal of Molecular Sciences, 2023).

For data set [1], the target named is T1, Fn1419 (Fusobacterium nucleatum subsp. nucleatum, UniProt Q8RDT4).
T1 construct: Fn1419 (GeneBank: AAL95612.1, residues 1–395); His-tag (N); made in house; host or cells: E. coli BL21 (DE3)
The data set is classed as biochemical. How it is done: MGL^Cys activity of Fn1419 was measured as previously reported. Fn1419 (5.75 nM) in assay buffer (40 mM potassium phosphate, pH 7.6, and 10 μM PLP) was mixed with various concentrations of L-cysteine (25, 50, 100, 200, 400, 800, or 1000 μM) and incubated for 15 min at 37 °C. H2S, the reaction product, was then detected based on methylene blue formation. Specifically, 100 μL of solution A (the enzyme reaction solution), 20 μL of solution B (20 mM N′,N′-dimethyl-p-phenylenediamine dihydrochloride and 7.2 M HCl), and 20 μL of solution C (30 mM FeCl3 and 1.2 M HCl) were mixed, and the mixture incubated for 30 min at room temperature.
(§1) Then, 500 μM L-cysteine was added, and the reaction was allowed to proceed for 5 min at 37 °C. The amount of produced H2S was detected indirectly, based on the formation of methylene blue. The reaction mixture consisted of solution A (100 μL), solution B (20 μL), and solution C (20 μL) (the solution composition is described at the enzyme assays) and was incubated for 30 min at 20 °C. The amount of generated methylene blue was detected at 670 nm, using a SpectraMax 190 Microplate Reader (Molecular Devices, San Jose, CA, USA) at 25 °C.

In data set [2] the target is T1, Fn1419. Description: IC50 determination on MGL^Cys activity of Fn1419. The data set is classed as biochemical. The procedure:
as §1
The concentration of the enzyme was 5.75 nM and the concentration of the six above-mentioned compounds was 500 μM. IC50 values were eventually calculated from non-linear regression curves fitted.

For data set [3] the following is noted: not told; cited from earlier work.
For data set [4] the following is noted: in vivo; cited from earlier work.
The next data set has as its system Fn1220. Description: Inhibitory effect of gallic acid on H2S production of Fn1220. Format: biochemical, Fusobacterium nucleatum. Particulars: 500 μM gallic acid, 5.75 nM enzyme. How it is done: as §1
The subject of a further data set is Fn1055. The experiment in a line: Inhibitory effect of gallic acid on H2S production of Fn1055. The data set is classed as biochemical, Fusobacterium nucleatum. Particulars: 500 μM gallic acid, 5.75 nM enzyme. How it is done:
as §1

Data set [5] concerns antibiotic-resistant S. aureus. The following applies: antibiotic-resistant S. aureus strains; cited from earlier work.
For a further data set, the system named is E. coli. The following applies: E. coli strains; cited from earlier work.
In another data set the test system is Mannheimia haemolytica. Particulars: Mannheimia haemolytica strains; cited from earlier work.
The next data set deals with Pasteurella multocida. The following applies: Pasteurella multocida strains; cited from earlier work.
Setting [6] is: 100 μM compound, 5.75 nM Fn1419, 500 μM L-cysteine.
Setting [7] is: 5.75 nM enzyme, preincubation 20 min at 20 °C, read-out: IC50 (Fn1419 MGL^Cys activity).

Structures can show the parent of a compound that is named as a salt. Where two headings read alike, the source gives them in different places. Where a SMILES comes first, the peptide text is derived from it. The star is where a group is joined. PhAc = O=C(Cc1ccccc1)*

T1 sequence (Q8RDT4 whole entry, the tested form may be a part): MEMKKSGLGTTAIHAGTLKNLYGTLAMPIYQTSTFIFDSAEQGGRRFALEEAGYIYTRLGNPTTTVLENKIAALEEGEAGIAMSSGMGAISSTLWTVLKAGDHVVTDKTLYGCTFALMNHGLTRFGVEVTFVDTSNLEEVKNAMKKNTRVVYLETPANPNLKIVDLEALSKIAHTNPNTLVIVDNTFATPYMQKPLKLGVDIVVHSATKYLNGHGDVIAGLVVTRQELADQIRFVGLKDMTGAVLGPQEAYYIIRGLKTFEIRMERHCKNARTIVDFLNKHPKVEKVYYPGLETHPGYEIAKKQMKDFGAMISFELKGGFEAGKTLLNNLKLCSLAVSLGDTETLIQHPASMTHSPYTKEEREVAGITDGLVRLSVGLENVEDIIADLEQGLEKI

For `N[C@@H](Cc1c[nH]c2ccc(O)cc12)C(=O)O` [5-hydroxyl tryptophan], on Fn1419 [1] (setting [6]), the “product increase rate (MGL^Cys activity of Fn1419 enhanced)” value (from here on “product increase rate”) worked out at 53.0%.
On the same count and under the same terms, for `O=C(O)C1(O)C[C@@H](O)C(O)[C@H](O)C1` (stereo partly drawn) [D-quinic acid] the value was 35.1%; for `O.O.O.O.O.OC[C@H]1O[C@H](OC[C@H]2O[C@H](O[C@]3(CO)O[C@H](CO)[C@@H](O)[C@@H]3O)[C@H](O)[C@@H](O)[C@@H]2O)[C@H](O)[C@@H](O)[C@H]1O` [D-raffinose pentahydrate], 72.5%.
Still for that read-out and setting: for `NCCCC(=O)O` [GABA] the value was 9.9%.
With `C[N+](C)(C)C[C@H](O)CC(=O)[O-]` [L-carnitine], the “effect on MGL^Cys enzyme activity of Fn1419 (in words)” value (“effect on MGL^Cys enzyme activity” for short) on Fn1419 [1] (setting [6]) is “did not significantly affect enzyme activity”.
Consider `N[C@@H](CCC(=O)O)C(=O)O` [L-glutamate], for which the “effect on MGL^Cys enzyme activity” value at Fn1419 [1] (setting [6]) was “did not significantly affect enzyme activity”.
On to `COc1cc2c(cc1OC)[C@@H]1Cc3ccc(OC)c(OC)c3CN1CC2` [L-tetrahydropal matrine], for which the “product increase rate” value on Fn1419 [1] (setting [6]) is 71.7%.
On to `CC(=O)N[C@@H](CS)C(=O)O` [N-acetyl-cysteine], for which the “product reduction rate (MGL^Cys activity of Fn1419)” value (“product reduction rate” below) on Fn1419 [1] (setting [6]) stood at 12%.
As for `CC(=O)O[C@H](CC(=O)O)C[N+](C)(C)C.[Cl-]` [acetyl L-carnitine HCl], the “effect on MGL^Cys enzyme activity” value at Fn1419 [1] (setting [6]) is “not significantly affected”.
On to `O=c1cc(-c2ccc(O)cc2)oc2cc(O)cc(O)c12` [apigenin], for which the “effect on MGL^Cys enzyme activity” value on Fn1419 [1] (setting [6]) was “not significantly affected”.
Regarding `C[N+](C)(C)CC(=O)O` [betaine-HCl], the “product increase rate” value at Fn1419 [1] (setting [6]) came out at 24%.
Regarding `O=C(/C=C/c1ccc(O)c(O)c1)O[C@@H]1C[C@](O)(C(=O)O)C[C@@H](O)[C@H]1O` [chlorogenic acid], on Fn1419 [1] (setting [6]), the “effect on MGL^Cys enzyme activity” value is on record as “did not significantly affect enzyme activity”.
Consider `C[N+](C)(C)CCO.O=C([O-])C(O)C(O)C(=O)O` (stereo not shown) [choline bitartrate], for which the “product increase rate” value at Fn1419 [1] was found to be 13.3%.
On to `C[N+](C)(C)CCOP(=O)([O-])OP(=O)([O-])OC[C@H]1O[C@@H](n2ccc(N)nc2=O)[C@H](O)[C@@H]1O.[Na+]` [citicoline sodium], for which the “effect on MGL^Cys enzyme activity” value at Fn1419 [1] (setting [6]) was “did not significantly affect enzyme activity”.
For `Nc1ncnc2c1ncn2[C@@H]1O[C@H](CO)C[C@H]1O` [cordycepin], the “effect on MGL^Cys enzyme activity” value at Fn1419 [1] (setting [6]) was “did not significantly affect enzyme activity”.
As to `CN(CC(=O)O)C(=N)N.O` [creatine monohydrate], the “product reduction rate” value at Fn1419 [1] (setting [6]) is 11.2%.
On the same count and under the same terms, for `COc1cc(/C=C/C(=O)CC(=O)/C=C/c2ccc(O)c(OC)c2)ccc1O` [curcumin] the value was 53.9%.
Regarding `O=C1c2c(O)cc(O)cc2O[C@H](c2cc(O)c(O)c(O)c2)[C@H]1O` [dihydromyricetin], at Fn1419 [1] (setting [6]), the “product reduction rate” value turned out to be 89.5%. Further, on Fn1419 [2] (setting [7]), the concentration for half-maximal inhibition (IC50) (usually the point on the concentration scale where inhibition reaches its midpoint) worked out at 23 µM. Besides, in [3], the permeability entry is reported as “low”. Moreover, in data set [4], the bioavailability result is given as “poor”.
Take `OC[C@@H](O)[C@@H](O)CO` [erythritol]: at Fn1419 [1] (setting [6]), the “product increase rate” value amounted to 16.4%.
Turning to `CCOC(=O)c1cc(O)c(O)c(O)c1` [ethyl gallate], the “product reduction rate” value at Fn1419 [1] (setting [6]) was 81.9%. For the same compound, on Fn1419 [2] (setting [7]), the half-inhibitory concentration (IC50) was 517 µM.
For the compound `COc1cc(C(=O)O)cc(OC)c1OC` [gallic acid trimethyl ether], at Fn1419 [1] (setting [6]), the “effect on MGL^Cys enzyme activity” value is “did not affect”.
For `O=C(O)c1cc(O)c(O)c(O)c1` [gallic acid], the “product reduction rate” value on Fn1419 [1] (setting [6]) was found to be 84.8%. On Fn1419 [2], the midpoint of inhibition, the IC50, lay at 121 µM. The “inhibition of Fn1220 (in words)” value with Fn1220 is on record as “did not inhibit”. The “inhibition of Fn1055 (in words)” value in the data set on Fn1055 was “did not inhibit”. Further, the “growth inhibition (in words)” value (in data set [5]; in the data set on E. coli; in the data set on Mannheimia haemolytica; in the data set on Pasteurella multocida) was “strongly inhibits the growth” in each case.
Regarding `CN(C)CCc1ccc(O)cc1.Cl` [hordenine HCl], on Fn1419 [1] (setting [6]), the “product increase rate” value was 32.1%.
On to `OCc1c[nH]c2ccccc12` [indole-3-carbinol], for which the “effect on MGL^Cys enzyme activity” value on Fn1419 [1] (setting [6]) is “not significantly affected”.
For `O[C@H]1[C@H](O)[C@@H](O)[C@H](O)[C@@H](O)[C@H]1O` [inositol], the “effect on MGL^Cys enzyme activity” value at Fn1419 [1] (setting [6]) is reported as “did not significantly affect enzyme activity”.
Regarding `O=c1c(O)c(-c2ccc(O)cc2)oc2cc(O)cc(O)c12` [kaempferol], the “product reduction rate” value at Fn1419 [1] (setting [6]) was determined as 40.4%.
For `O=C1CCC[C@@H]2[C@H]3CCCN4CCC[C@@H](CN12)[C@@H]34` [matrine], the “product increase rate” value at Fn1419 [1] (setting [6]) is given as 4.9%.
Take `COC(=O)c1cc(O)c(O)c(O)c1` [methyl gallate]: at Fn1419 [1] (setting [6]), the “product reduction rate” value stood at 81.5%.
With `O=C(O)c1cccnc1` [niacin], the “effect on MGL^Cys enzyme activity” value on Fn1419 [1] is “did not significantly affect enzyme activity”.
Regarding `CCOC(=O)CNC(=O)[C@@H]1CCCN1C(=O)Cc1ccccc1` [noopept] (PhAc-Pro-Gly-OEt), the “product increase rate” value on Fn1419 [1] (setting [6]) amounted to 21.8%.
The same measure, in the same setting: then `CCCCCCCC/C=C\CCCCCCCC(N)=O` [oleamide], with 24.6%.
Regarding `O=C(O)/C=C/c1ccc(O)cc1` [p-coumaric, p-coumaric acid], the “effect on MGL^Cys enzyme activity” value at Fn1419 [1] (setting [6]) is given as “not significantly affected”.
In the case of `Cl.NCC(CC(=O)O)c1ccccc1` (stereo not shown) [phenibut HCl], on Fn1419 [1] (setting [6]), the “product increase rate” value is recorded as 61.8%.
In the case of `NC(=O)CN1CC(c2ccccc2)CC1=O` (stereo not shown) [phenylpiracetam], the “effect on MGL^Cys enzyme activity” value at Fn1419 [1] (setting [6]) is “did not significantly affect enzyme activity”.
Consider `C/C=C/C=C/C(=O)[O-].[K+]` [potassium sorbate], for which the “product reduction rate” value on Fn1419 [1] was 5.3%.
On to `Cc1ncc(CO)c(CO)c1O` [pyridoxine-HCl], for which the “effect on MGL^Cys enzyme activity” value at Fn1419 [1] (setting [6]) is “did not significantly affect enzyme activity”.
For `Oc1cccc(O)c1O` [pyrogallic acid], at Fn1419 [1] (setting [6]), the “product reduction rate” value is recorded as 89.8%. On Fn1419 [2], this compound yielded an IC50 of 57 µM.
Take `C[C@@H]1O[C@@H](OC[C@H]2O[C@@H](Oc3c(-c4ccc(O)c(O)c4)oc4cc(O)cc(O)c4c3=O)[C@H](O)[C@@H](O)[C@@H]2O)[C@H](O)[C@H](O)[C@H]1O` [rutin]: the “product reduction rate” value at Fn1419 [1] (setting [6]) was found to be 18.2%.
As to `CNCC(O)c1ccc(O)cc1` (stereo not shown) [synephrine], the “product reduction rate” value on Fn1419 [1] (setting [6]) amounted to 32.4%.
Turning to `O=C1O[C@H]([C@@H](O)CO)C(O)=C1O` [vitamin C], the “effect on MGL^Cys enzyme activity” value on Fn1419 [1] (setting [6]) is “did not significantly affect enzyme activity”.
On the same count and under the same terms, for `OC[C@@H](O)[C@H](O)[C@@H](O)CO` [xylitol] the value was “did not significantly affect enzyme activity”; for `O=C(O)CCCCC1CCSS1` (stereo not drawn) [α-lipoic acid], “not significantly affected”.
As for chondroitin sulfate, the “product increase rate” value on Fn1419 [1] (setting [6]) is given as 5.8%.
